The record followed here is publication PMC8470881, “Membrane Interactions of Latarcins: Antimicrobial Peptides from Spider Venom” (International Journal of Molecular Sciences, 2021).

Values joined by “and” are separate entries in the source; they are usually repeats but may differ in a detail not shown here. Equal values may be shown once.

The nature of data set [1]: ANTS/DPX fluorescence vesicle leakage assay. The settings on record: vesicle leakage of ANTS/DPX in POPC/POPG (1/1) LUVs, P/L = 1:50, 100 µM lipid, 10 min, 30 °C, pH 7.5. As to the method: The ability of the peptides to induce leakage in large unilamellar vesicles (≈120 nm diameter) of POPC/POPG (1/1) was studied using a fluorescence assay using ANTS/DPX, as described previously.
For the leakage experiments, the buffer in which the vesicles were prepared contained the fluorophore ANTS (12.5 mM), the quencher DPX (45 mM), 50 mM NaCl, and 10 mM HEPES (pH 7.5). Liposomes were prepared by co-dissolving POPC/POPG 1/1 (mol/mol) lipids in CHCl3/MeOH (3/1 v/v), together with 10^−2 mol% Rhod-PE, by which the lipid loss during vesicle preparation (extrusion and gel filtration, see below) could be quantified. The peptide-to-lipid ratio (P/L) is given in mol/mol. The lipid mixture was dried under N2(g) and dried under vacuum for 2–4 h. The obtained thin film was then re-suspended in the buffer, which contained the fluorophore and the quencher, by vigorous vortexing, followed by 10 freeze–thaw cycles. Large unilamellar vesicles (LUV) were obtained by 41-fold extrusion (Avanti Mini Extruder; Avanti Polar Lipids, Alabaster, AL, USA) of the liposomes through a Nuclepore polycarbonate membrane (pore size 100 nm, Whatman-GE Healthcare Europe, Freiburg, Germany) at a temperature 20 °C above the lipid phase transition. […]
The leakage of entrapped ANTS was monitored by fluorescence dequenching of ANTS [18]. Fluorescence measurements were performed in a thermostated cuvette with constant stirring at 30 °C in the elution buffer used for gel filtration on a FluoroMax2 spectrofluorimeter (HORIBA Jobin Yvon, Unterhaching, Germany) by setting the ANTS excitation wavelength to 355 nm and its emission wavelength to 510 nm. Peptide stock solutions in water were prepared, and the peptide concentration was calculated from the weighed amount. […] The fluorescence signal was followed for 10 minutes, and after that time, Triton X-100 was added to completely disrupt the vesicles. The level of 0% leakage corresponded to the fluorescence of the vesicles immediately after their addition, while 100% leakage was the fluorescence value obtained after the addition of Triton X-100.
The synergy of the peptides towards vesicle leakage was investigated by pair-wise combinations of latarcins. The leakage was measured for each peptide alone at P/L = 1/100 and for peptide combinations at P/P/L = 1/1/100. The synergy factor, SF, is calculated according to:SF = L(P1 + P2)/[L(P1) + L(P2)].(1)
Here, L(P1) is the leakage of peptide 1 alone, L(P2) is the leakage of peptide 2 alone, and L(P1 + P2) is the leakage for the mixture of the peptides. […] The SF was determined separately for each batch of samples, and then the individual SF values were averaged.

The nature of data set [2]: Circular dichroism spectroscopy (secondary structure). Format: physicochemical. The settings on record: for % Helix (CD): CD in DMPC/DMPG (7/3) SUVs, P/L = 1:50, 10 mM phosphate buffer pH 7.0, 30 °C, peptide 29.3 μM, deconvolution with CDSSTR, CONTIN-LL, SELCON-3. The text has this: Next, we compared the secondary structure of the full set of latarcins in the presence of lipid membranes, for which there are no complete data available yet.
The CD line shapes (Figure 2) were deconvoluted to estimate the secondary structure contributions (Supplementary Table S1) using the CDSSTR, CONTIN-LL, and SELCON-3 algorithms provided on the DICHROWEB online server as described previously. […] In peptides containing a high proportion of aromatic residues, such shifts of the long-wavelength band are well documented.
Small unilamellar vesicles (SUVs) for the CD measurements were prepared as follows. Weighed amounts of the lipid powders (DMPC, DMPG) were dissolved in chloroform/methanol 1/1 (v/v) to obtain 5 mg/mL stock solutions. For obtaining mixed DMPC/DMPG liposomes (7/3 molar ratio), the appropriate aliquots of these stock solutions were pipetted in a glass vial and thoroughly vortexed. The organic solvents were removed under a gentle stream of nitrogen gas, followed by 3 h of vacuum pumping in an exsiccator at a reduced pressure of 3-4 mbars to remove solvent residuals from the lipid film that had formed in the vial. The lipid film was dispersed by the addition of 10 mM phosphate buffer (PB) pH 7.0 and homogenized by vigorously vortexing for 10 × 1 min and 10 freeze–thaw cycles. SUVs were formed by sonication of the obtained multilamellar vesicles for 16 min in a strong ultrasonic bath (UTR 200, Hielscher, Germany). The temperature of the water in the ultrasonic bath was adjusted to 35 °C by circulating it through a thermostat to avoid overheating the samples. A weighed amount of the corresponding peptide was dissolved in water resulting in stock solutions with a peptide concentration of 0.5 mg/mL. For the final CD samples, each peptide stock solution was diluted to 29.3 μM and the corresponding lipid dispersion to 1.47 mM in 10 mM PB, resulting in a peptide-to-lipid (P/L) ratio of 1/50.
[…] The samples were measured in a 1-millimeter path length quartz glass cell (Suprasil, Hellma Müllheim, Germany) between 260 and 185 nm at 0.5 nm intervals. Spectra of the liposome samples were recorded at 30 °C, i.e., well above the phase transition temperature of the lipids, using a water-thermostated rectangular cell holder. Three repeat scans at a scan rate of 10 nm min^−1, 8 s response time, and 1 nm bandwidth were averaged for each sample, and the baseline spectrum of the respective peptide-free sample was subtracted from the sample spectrum. CD spectra were smoothened by a Savitzky-Golay filter (convolution width of 15 data points), which is implemented in the Jasco Spectra Analysis software.
(In general: Circular dichroism is widely used to follow secondary structure.)

For H-GLKDKFKSMGEKLKQYIQTWKAKF-NH2 [Ltc4a], in data set [1], the “% Leakage” value is 20% and 22%. Moreover, the “% Helix (CD)” value in data set [2] stood at 94%.
For “H-GFFGKMKEYFKKFGASFKRRFANLKKRL-NH2 [Ltc5]”, the “% Helix (CD)” value in data set [2] turned out to be 85%.
As for H-SWKSMAKKLKEYMEKLKQRA-NH2 [Ltc3a], the “% Leakage” value in data set [1] is 20%. In addition, in data set [2] (10 mM phosphate buffer pH 7, no lipids, 30 °C), the “helical fold (CD) in buffer without lipids” value is given as “ca. 30%”. For the same substance, in data set [2], the “% Helix (CD)” value is recorded as 87%.
In the case of “G E TF D K L K E K L K TFYQ K LV E K A ED L K G D L K A K LS-acid [Ltc7]”, in data set [1], the “% Leakage” value was 50% and 54%. In addition, in data set [2], the “% Helix (CD)” value worked out at 89%.
With “H-QAFQTFKPDWNKIRYDAMKMQTSLGQMKKRFNL-OH [Ltc6a]”, the “% Leakage” value in data set [1] is 50% and 46%. Further, in data set [2], the “% Helix (CD)” value amounted to 65%.
